Experiment [1] has as its system scopolamine-induced cognitive impairment. The experiment is described as follows: passive avoidance task, scopolamine-induced cognitive impairment in mice. Conditions: alone, compared with 1% CMC and scopolamine group. It counts as in vivo. The procedure: Eight to nine week old male ICR strain mice (Charles River Laboratories Japan, Inc.) were used in the experiment. They were housed in a cage in groups of 3 or 4 mice, in a room maintained at around 22 degree C. under 12 hour light/dark cycles. Food and water were provided ad libitum. All animal care and treatment was conducted in accordance with the Guidelines for the Care and Use of Laboratory Animals, established at the Central Research Laboratory, Zenyaku Kogyo Co., Ltd.
Compound 1 and donepezil were suspended in 1% carboxymethyl cellulose (CMC). […] For the coadministration studies of Compound 1 and donepezil, both drug suspensions were mixed together and this mixed suspension was […]. All drugs were prepared immediately before use and orally administered at a dosage of 10 ml/kg.
The passive avoidance apparatus (Neuroscience Inc.) consisted of an illuminated chamber and a larger dark chamber. Two chambers were separated by a guillotine door. Oral administration of compound 1 at doses of 0.0001 mg/kg or 0.001 mg/kg and/or donepezil at doses of 0.01 and 0.1 mg/kg was given 60 min before the acquisition trial. […] The matched control group only received the vehicle. During the acquisition trial, each mouse was placed in the illuminated chamber. Immediately after the entry into the dark chamber, the door was closed and an inescapable scrambled electric shock (100 V, 0.4 mA, 1.5 sec) was delivered through the floor grid. Twenty-four hours later, each mouse was placed in the illuminated chamber for retention trial. The interval between placement in the illuminated chamber and entry into the dark chamber was measured as step through latency (maximum 300 seconds).
A P level of <0.05 was considered indicative of statistical significance for the tests.

The test system of experiment [2] is extracellular levels of acetylcholine (ACh) in a rat hippocampus. The experiment is described as follows: extracellular levels of acetylcholine (ACh) in rat hippocampus (microdialysis, HPLC-ECD). It counts as in vivo. Particulars: alone, compared with 1% CMC group. The procedure:
Food and water were provided ad libitum. All animal care and treatment was conducted in accordance with the Guidelines for the Care and Use of Laboratory Animals, established at the Central Research Laboratory, Zenyaku Kogyo Co., Ltd.

For `O=C1N=C2C=CC=CN2C12Cc1ccccc1C2` [compound 1, spiro[imidazo[1,2-a]pyridin-2(3H)-one-3,2′-indan]], the “step-through latency in retention trial” value is given as “did not significantly prolong the step-through latency” in experiment [1] (compound 1 0.0001 mg/kg oral) and “prolonged the step-through latency” in experiment [1] (compound 1 0.001 mg/kg oral, P<0.05). Further, the “extracellular level of ACh in the hippocampus” value in experiment [2] (compound 1 0.001 mg/kg oral) is “did not significantly increase”.

Regarding `COc1cc2c(cc1OC)C(=O)C(CC1CCN(Cc3ccccc3)CC1)C2` (stereo not drawn) [donepezil], the “step-through latency in retention trial” value in experiment [1] (donepezil 0.01 mg/kg oral) is recorded as “did not significantly prolong the step-through latency”; in experiment [1] (donepezil 0.1 mg/kg oral, P<0.05) it was “prolonged the step-through latency”. In experiment [2] (donepezil 1 mg/kg oral), the “extracellular level of ACh in the hippocampus” value is given as “did not significantly increase”.
